Legend:
[1] = molecular target: T1, Steroid sulphatase (oestrone sulphatase) (Homo sapiens, UniProt P08842); assay: Inhibition of steroid sulphatase activity in placental microsomes; format: biochemical; conditions: read-out: % INHIBITION (mean ± S.D., n = 3) PLACENTAL MICROSOMES
T1 construct: Sulphatase-positive human placenta from normal term pregnancies; from tissue; host or cells: human term placenta (2000 g supernatant / microsomes)
T1 sequence (P08842 22-583): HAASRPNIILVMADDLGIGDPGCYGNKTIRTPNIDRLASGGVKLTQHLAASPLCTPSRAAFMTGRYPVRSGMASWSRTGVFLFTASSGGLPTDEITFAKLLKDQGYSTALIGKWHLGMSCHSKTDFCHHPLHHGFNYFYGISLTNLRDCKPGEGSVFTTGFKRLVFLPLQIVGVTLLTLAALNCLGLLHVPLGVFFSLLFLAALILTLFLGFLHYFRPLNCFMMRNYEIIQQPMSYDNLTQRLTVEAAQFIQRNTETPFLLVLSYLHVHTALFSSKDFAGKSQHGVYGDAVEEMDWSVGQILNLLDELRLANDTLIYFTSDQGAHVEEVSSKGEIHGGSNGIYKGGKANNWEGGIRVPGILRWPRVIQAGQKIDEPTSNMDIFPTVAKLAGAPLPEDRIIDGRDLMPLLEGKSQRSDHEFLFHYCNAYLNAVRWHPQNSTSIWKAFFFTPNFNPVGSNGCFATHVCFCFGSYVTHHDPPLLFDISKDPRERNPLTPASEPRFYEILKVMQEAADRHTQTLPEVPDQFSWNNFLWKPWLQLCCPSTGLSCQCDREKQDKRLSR
Experimental: (§1) In the examples reference is made to steroid sulphatase inhibition. This is determined according to the teachings of PCT/GB92/01587 wherein the ability of compounds to inhibit oestrone sulphatase activity is assessed using either intact MCF-7 breast cancer cells or placental microsomes. For ease of reference, those teachings are repeated here as Example 1.
Sulphatase-positive human placenta from normal term pregnancies (Obstetric Ward, St. Mary's Hospital, London) were thoroughly minced with scissors and washed once with cold phosphate buffer (pH 7.4, 50 mM) then re-suspended in cold phosphate buffer (5 ml/g tissue). Homogenisation was accomplished with an Ultra-Turrax homogeniser, using three 10 second bursts separated by 2 minute cooling periods in ice. Nuclei and cell debris were removed by centrifuging (4° C.) at 2000 g for 30 minutes and portions (2 ml) of the supernatant were stored at −20° C. The protein concentration of the supernatants was determined by the method of Bradford (Anal. Biochem., 72, 248-254 (1976)).
Incubations (1 ml) were carried out using a protein concentration of […], substrate concentration of […] [6,7-^3H]oestrone-3-sulphate (specific activity 60 Ci/mmol from New England Nuclear, Boston, Mass., U.S.A.) and an incubation time of 20 minutes at 37° C. Eight concentrations of the compounds to be tested may be employed: 0 (i.e. control); 0.05 mM; 0.1 mM; 0.2 mM; 0.4 mM; 0.6 mM; 0.8 mM; 1.0 mM. After incubation each sample was cooled and the medium (1 ml) was pipetted into separate tubes containing [^14C]oestrone (7×10^3 dpm) (specific activity 97 Ci/mmol from Amersham International Radiochemical Centre, Amersham, U.K.). The mixture was shaken thoroughly for 30 seconds with toluene (5 ml). […] A portion (2 ml) of the organic phase was removed, evaporated and the ^3H and ^14C content of the residue determined by scintillation spectrometry. The mass of oestrone-3-sulphate hydrolysed was calculated from the ^3H counts obtained (corrected for the volumes of the medium and organic phase used, and for recovery of [^14C]oestrone added) and the specific activity of the substrate.

uterine growth = assay: Measurement of estrogenic activity (uterine weight); format: in vivo; conditions: rats, oral, such as 0.1 mg/Kg/day for five days; uterine weight/whole body weight×100
Experimental: Compounds according to the present invention such as Compound 2 (such as at levels of 0.1 mg/Kg/day for five days) are administered orally to rats with another group of animals receiving vehicle only (propylene glycol). At the end of the study uteri are obtained and weighed with the results being expressed as uterine weight/whole body weight×100.

Rat Liver Sulphatase = molecular target: T2, Rat Liver Sulphatase (Rattus norvegicus, UniProt P15589); assay: In vivo inhibition (rat liver sulphatase); conditions: 2 mg/kg/d×5 ol, ORAL DOSE
T2 construct: from tissue; host or cells: rat liver after oral dosing
T2 sequence (P15589 20-577): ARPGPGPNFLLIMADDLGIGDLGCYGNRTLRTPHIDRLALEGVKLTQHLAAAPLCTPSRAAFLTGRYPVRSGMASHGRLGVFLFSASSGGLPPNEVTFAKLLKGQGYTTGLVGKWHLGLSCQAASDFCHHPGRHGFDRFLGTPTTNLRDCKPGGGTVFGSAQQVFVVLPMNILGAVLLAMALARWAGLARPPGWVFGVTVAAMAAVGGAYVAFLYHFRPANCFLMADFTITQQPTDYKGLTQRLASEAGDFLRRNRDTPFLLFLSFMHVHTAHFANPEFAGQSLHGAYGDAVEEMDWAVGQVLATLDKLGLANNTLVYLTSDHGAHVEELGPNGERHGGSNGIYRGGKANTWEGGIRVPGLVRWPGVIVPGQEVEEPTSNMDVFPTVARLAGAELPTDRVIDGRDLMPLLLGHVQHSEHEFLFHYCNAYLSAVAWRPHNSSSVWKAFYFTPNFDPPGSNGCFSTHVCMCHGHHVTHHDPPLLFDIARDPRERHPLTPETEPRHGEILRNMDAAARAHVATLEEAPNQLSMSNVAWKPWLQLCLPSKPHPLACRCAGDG
Experimental: In Vivo Inhibition (Rat Liver Sulphatase)
99.2±0.42%. @ 2 mg/kg/d×5 ol, ORAL DOSE.

[2] = molecular target: T3, Steroid sulphatase (Steryl Sulphatase EC 3.1.6.2) (Homo sapiens, UniProt P08842); assay: Inhibition of steroid sulphatase activity in intact MCF-7 cells; format: cell-based; conditions: MCF7, read-out: % INHIBITION (mean ± S.D., n = 3) MCF-7 cells
T3 construct: endogenous in cells; host or cells: MCF-7 human breast cancer cells
T3 sequence (P08842 22-583): T1 sequence (P08842 22-583)
Experimental: as §1
Steroid sulphatase (Steroid sulphatase is defined as: Steryl Sulphatase EC 3.1.6.2.) activity was measured in vitro using intact MCF-7 human breast cancer cells. This hormone dependent cell line is widely used to study the control of human breast cancer cell growth. […] Cells were maintained in Minimal Essential Medium (MEM) (Flow Laboratories, Irvine, Scotland) containing 20 mM HEPES, 5% foetal bovine serum, 2 mM glutamine, non-essential amino acids and 0.075% sodium bicarbonate. Up to 30 replicate 25 cm^2 tissue culture flasks were seeded with approximately 1×10^5 cells/flask using the above medium. Cells were grown to 80% confluency and medium was changed every third day.
Intact monolayers of MCF-7 cells in triplicate 25 cm^2 tissue culture flasks were washed with Earle's Balanced Salt Solution (EBSS from ICN Flow, High Wycombe, U.K.) and incubated for 3-4 hours at 37° C. with 5 pmol (7×10^5 dpm) [6,7-^3H]oestrone-3-sulphate (specific activity 60 Ci/mmol from New England Nuclear, Boston, Mass., U.S.A.) in serum-free MEM (2.5 ml) together with oestrone-3-sulphamate (11 concentrations: 0; 1 fM; 0.01 pM; 0.1 pM; 1 pM; 0.01 nM; 0.1 nM; 1 nM; 0.01 mM; 0.1 mM; 1 mM). […] A portion (2 ml) of the organic phase was removed, evaporated and the ^3H and ^14C content of the residue determined by scintillation spectrometry. The mass of oestrone-3-sulphate hydrolysed was calculated from the ^3H counts obtained (corrected for the volumes of the medium and organic phase used, and for recovery of [^14C]oestrone added) and the specific activity of the substrate. […] The number of cell nuclei per flask was determined using a Coulter Counter after treating the cell monolayers with Zaponin. […]

[3] = cited from earlier work
rat liver DHA-STS = molecular target: T4, rat liver DHA-STS (Rattus norvegicus, UniProt P15589); conditions: administered either orally or subcutaneously; cited from earlier work
T4 construct: host or cells: rat liver (in vivo)
T4 sequence (P15589 20-577): T2 sequence (P15589 20-577)

[4] = molecular target: T3, Steroid sulphatase (Steryl Sulphatase EC 3.1.6.2); conditions: 0.1 μM; cited from earlier work
E1-STS enzyme = molecular target: T5, E1-STS enzyme (Homo sapiens, UniProt P08842); conditions: cited from earlier work
T5 sequence (P08842 22-583): T1 sequence (P08842 22-583)

memory = conditions: rats; cited from earlier work
rat liver E1-STS = molecular target: T6, rat liver E1-STS (Rattus norvegicus, UniProt P15589); conditions: administered either orally or subcutaneously; cited from earlier work
T6 construct: host or cells: rat liver (in vivo)
T6 sequence (P15589 20-577): T2 sequence (P15589 20-577)

C[C@]12CCC3c4ccc(OS(N)(=O)=O)cc4CCC3C1CCC2=NO (stereo partly shown) [Compound 2, Oestrone Oxime-3-O-sulphamate]
inhibition at 0.0001 µM ([1]; inhibitor concentration 0.1 nM): 2.9 ± 1.1% | inhibition at 0.001 µM ([1]; inhibitor concentration 1 nM): 8 ± 3.3% | inhibition at 0.01 µM ([1]; inhibitor concentration 10 nM): 19.3 ± 2.4% | inhibition at 0.1 µM ([1]; inhibitor concentration 0.1 μM): 52.3 ± 0.1% | inhibition at 1 µM ([1]; inhibitor concentration 1 μM): 89.8 ± 0.2% | inhibition at 10 µM ([1]; inhibitor concentration 10 μM): 98.7 ± 0.1% | Estrogenic activity: effect on uterine growth (uterine growth): has an effect on uterine growth | In vivo inhibition (rat liver sulphatase) (Rat Liver Sulphatase): 99.2±0.42% | inhibition at 0.1 µM ([2]; inhibitor concentration 0.1 μM): 96 ± 1.8% | inhibition at 1 µM ([2]; inhibitor concentration 1 μM): 98 ± 0.6% | inhibition at 10 µM ([2]; inhibitor concentration 10 μM): 99 ± 0.2%

C[C@]12CC[C@@H]3c4ccc(OS(=O)(=O)O)cc4CC[C@H]3[C@@H]1CCC2=O [Compound E1S, oestrone sulphate]
half-life in blood [3]: 10 to 12 h

CC12CCC3c4ccc(OS(N)(=O)=O)cc4CCC3C1CCC2=O (stereo not shown) [EMATE, oestrone-3-sulphamate]
inhibition of rat liver DHA-STS activity (rat liver DHA-STS): 99% | inhibition of E1-STS activity in intact MCF-7 cells [4]: more than 99% | mode of inhibition of the E1-STS enzyme (E1-STS enzyme): time- and concentration-dependent manner | memory enhancing effect (memory): memory enhancing effect | inhibition of rat liver E1-STS activity (rat liver E1-STS): 99%

oestrone-3-N-sulphamate
mode of inhibition of the E1-STS enzyme (E1-STS enzyme): weaker non-time-dependent inactivators

oestrone-3-S-sulphamate
mode of inhibition of the E1-STS enzyme (E1-STS enzyme): weaker non-time-dependent inactivators

— patent US6670353B2, “Oxime-group containing oestrone sulphatase inhibitors” (Sterix Limited, priority 1997, dated 2003)
